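48-hour exposure; five concentrations; linearly interpolated endpoints. The concentration for 50% growth inhibition is given as GI50.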 The source made the active and inactive calls. Rule as the data show it: active = GI50 up to about 1.1 µM and inactive = higher.
How the values were obtained:
Experiment in all cases: inhibition of tumour cell growth, NCI panel, 48 h
NCI-H226 = system: NCI-H226
HOP-18 = system: HOP-18
SF-295 = system: SF-295
Malme-3M = system: Malme-3M
HT-29 = system: HT-29
OVCAR-8 = system: OVCAR-8
OVCAR-4 = system: OVCAR-4
MOLT-4 = system: MOLT-4
HL-60 = system: HL-60
ACHN = system: ACHN
IGROV-1 = system: IGROV-1
NCI-H522 = system: NCI-H522
SNB-78 = system: SNB-78
LOX IMVI = system: LOX IMVI
UACC-62 = system: UACC-62
A549 = system: A549
NCI-H23 = system: NCI-H23
SK-OV-3 = system: SK-OV-3
M19-MEL = system: M19-MEL
XF498 = system: XF498
UO-31 = system: UO-31
HCC 2998 = system: HCC 2998
SNB-19 = system: SNB-19
SK-MEL-5 = system: SK-MEL-5
SK-MEL-28 = system: SK-MEL-28
CCRF-CEM = system: CCRF-CEM
DMS-114 = system: DMS-114
SF-539 = system: SF-539
KM12 = system: KM12
SK-MEL-2 = system: SK-MEL-2
RXF 393 = system: RXF 393
SN12C = system: SN12C
LXFL 529 = system: LXFL 529
TK-10 = system: TK-10
HCT-15 = system: HCT-15
HCT-116 = system: HCT-116
OVCAR-3 = system: OVCAR-3
SNB-75 = system: SNB-75
NCI-H460 = system: NCI-H460
UACC-257 = system: UACC-257
U-251 = system: U-251
K562 = system: K562
SF-268 = system: SF-268
HOP-92 = system: HOP-92
RPMI-8226 = system: RPMI-8226
HOP-62 = system: HOP-62
KM-20L2 = system: KM-20L2
786-0 = system: 786-0
OVCAR-5 = system: OVCAR-5
DMS-273 = system: DMS-273
A498 = system: A498
SW-620 = system: SW-620
COLO 205 = system: COLO 205
EKVX = system: EKVX
M14 = system: M14
CAKI-1 = system: CAKI-1
DLD-1 = system: DLD-1

With `CN(C)c1nc(N(C)C)nc(N(C)CN(C)c2ccccc2)n1` the GI50 (NCI-H226) was > 100 µM (inactive), the GI50 (HOP-18) was > 100 µM (inactive) and the GI50 (SF-295) was > 100 µM (inactive). For the same compound, the GI50 (Malme-3M) was > 100 µM (inactive), the GI50 (HT-29) was > 100 µM (inactive) and the GI50 (OVCAR-8) was > 100 µM (inactive). For the same compound, the GI50 (OVCAR-4) was > 100 µM (inactive), the GI50 (MOLT-4) was > 100 µM (inactive) and the GI50 (HL-60) was > 100 µM (inactive). For the same compound, the GI50 (ACHN) was > 100 µM (inactive), the GI50 (IGROV-1) was > 100 µM (inactive) and the GI50 (NCI-H522) was > 100 µM (inactive). For the same compound, the GI50 (SNB-78) was > 100 µM (inactive), the GI50 (LOX IMVI) was > 100 µM (inactive) and the GI50 (UACC-62) was > 100 µM (inactive). For the same compound, the GI50 (A549) was > 100 µM (inactive), the GI50 (NCI-H23) was > 100 µM (inactive) and the GI50 (SK-OV-3) was > 100 µM (inactive). The GI50 (M19-MEL) was > 100 µM (inactive), the GI50 (XF498) was > 100 µM (inactive) and the GI50 (UO-31) was > 100 µM (inactive). For the same compound, the GI50 (HCC 2998) was 64.4 µM (inactive), the GI50 (SNB-19) was > 100 µM (inactive) and the GI50 (SK-MEL-5) was 88.7 µM (inactive). The GI50 (SK-MEL-28) was > 100 µM (inactive), the GI50 (CCRF-CEM) was > 100 µM (inactive) and the GI50 (DMS-114) was 63.5 µM (inactive). For the same compound, the GI50 (SF-539) was > 100 µM (inactive), the GI50 (KM12) was > 100 µM (inactive) and the GI50 (SK-MEL-2) was > 100 µM (inactive). For the same compound, the GI50 (RXF 393) was > 100 µM (inactive), the GI50 (SN12C) was > 100 µM (inactive) and the GI50 (LXFL 529) was > 100 µM (inactive). The GI50 (TK-10) was > 100 µM (inactive), the GI50 (HCT-15) was greater than 100 µM and the GI50 (HCT-116) was > 100 µM (inactive). For the same compound, the GI50 (OVCAR-3) was > 100 µM (inactive), the GI50 (SNB-75) was > 100 µM (inactive) and the GI50 (NCI-H460) was > 100 µM (inactive). For the same compound, the GI50 (UACC-257) was > 100 µM (inactive), the GI50 (U-251) was > 100 µM (inactive) and the GI50 (K562) was > 100 µM (inactive). The GI50 (SF-268) was > 100 µM (inactive).
`COc1cc(-c2cc(=O)c3ccccc3o2)ccc1N` was tested, and the GI50 (HOP-92) was 33.8 µM (inactive), the GI50 (NCI-H226) was 15.2 µM (inactive) and the GI50 (HOP-18) was 27.5 µM (inactive). For the same compound, the GI50 (SF-295) was 46.7 µM (inactive), the GI50 (Malme-3M) was > 100 µM (inactive) and the GI50 (RPMI-8226) was 45.5 µM (inactive). For the same compound, the GI50 (HOP-62) was 41 µM (inactive), the GI50 (HT-29) was 52.8 µM (inactive) and the GI50 (KM-20L2) was 49.5 µM (inactive). For the same compound, the GI50 (OVCAR-8) was 51.9 µM (inactive), the GI50 (OVCAR-4) was 54.5 µM (inactive) and the GI50 (MOLT-4) was 25.5 µM (inactive). For the same compound, the GI50 (HL-60) was 16.6 µM (inactive), the GI50 (ACHN) was 47.3 µM (inactive) and the GI50 (IGROV-1) was > 100 µM (inactive). For the same compound, the GI50 (NCI-H522) was 20.5 µM (inactive), the GI50 (SNB-78) was > 100 µM (inactive) and the GI50 (LOX IMVI) was 51.1 µM (inactive). The GI50 (UACC-62) was 79.8 µM (inactive), the GI50 (A549) was 52.1 µM (inactive) and the GI50 (NCI-H23) was 33.8 µM (inactive). The GI50 (SK-OV-3) was > 100 µM (inactive), the GI50 (M19-MEL) was > 100 µM (inactive) and the GI50 (XF498) was 24 µM (inactive). The GI50 (786-0) was > 100 µM (inactive), the GI50 (UO-31) was 18.1 µM (inactive) and the GI50 (HCC 2998) was > 100 µM (inactive). The GI50 (SNB-19) was 43.4 µM (inactive), the GI50 (OVCAR-5) was 84.7 µM (inactive) and the GI50 (DMS-273) was 50.2 µM (inactive). The GI50 (SK-MEL-5) was 41.1 µM (inactive), the GI50 (A498) was 27.2 µM (inactive) and the GI50 (SK-MEL-28) was > 100 µM (inactive). The GI50 (CCRF-CEM) was 40.6 µM (inactive), the GI50 (SW-620) was 92.7 µM (inactive) and the GI50 (DMS-114) was 63.5 µM (inactive). For the same compound, the GI50 (COLO 205) was 69.3 µM (inactive), the GI50 (SF-539) was 30.8 µM (inactive) and the GI50 (KM12) was 39.3 µM (inactive). The GI50 (SK-MEL-2) was > 100 µM (inactive), the GI50 (RXF 393) was 41 µM (inactive) and the GI50 (SN12C) was 65.8 µM (inactive). The GI50 (LXFL 529) was > 100 µM (inactive), the GI50 (TK-10) was > 100 µM (inactive) and the GI50 (HCT-15) was 27 µM. The GI50 (HCT-116) was 54.3 µM (inactive), the GI50 (OVCAR-3) was 62.8 µM (inactive) and the GI50 (EKVX) was 12.8 µM (inactive). The GI50 (SNB-75) was 19.7 µM (inactive), the GI50 (NCI-H460) was 37.2 µM (inactive) and the GI50 (M14) was > 100 µM (inactive). For the same compound, the GI50 (CAKI-1) was 11.7 µM (inactive), the GI50 (UACC-257) was > 100 µM (inactive) and the GI50 (U-251) was > 100 µM (inactive). For the same compound, the GI50 (K562) was 60.8 µM (inactive) and the GI50 (SF-268) was 26.8 µM (inactive).
With `Cc1cc(O)nc(CNC(=O)c2cccc(C(=O)NCc3cc(O)nc(C)n3)c2)n1` the GI50 (HOP-92) was > 100 µM (inactive), the GI50 (NCI-H226) was > 100 µM (inactive) and the GI50 (HOP-18) was 68.5 µM (inactive). For the same compound, the GI50 (SF-295) was > 100 µM (inactive), the GI50 (Malme-3M) was > 100 µM (inactive) and the GI50 (DLD-1) was > 100 µM (inactive). For the same compound, the GI50 (RPMI-8226) was > 100 µM (inactive), the GI50 (HOP-62) was > 100 µM (inactive) and the GI50 (HT-29) was > 100 µM (inactive). For the same compound, the GI50 (KM-20L2) was > 100 µM (inactive), the GI50 (OVCAR-8) was > 100 µM (inactive) and the GI50 (OVCAR-4) was > 100 µM (inactive). The GI50 (MOLT-4) was > 100 µM (inactive), the GI50 (HL-60) was > 100 µM (inactive) and the GI50 (ACHN) was > 100 µM (inactive). The GI50 (IGROV-1) was > 100 µM (inactive), the GI50 (NCI-H522) was > 100 µM (inactive) and the GI50 (SNB-78) was > 100 µM (inactive). For the same compound, the GI50 (LOX IMVI) was > 100 µM (inactive), the GI50 (UACC-62) was > 100 µM (inactive) and the GI50 (A549) was > 100 µM (inactive). For the same compound, the GI50 (NCI-H23) was > 100 µM (inactive), the GI50 (SK-OV-3) was > 100 µM (inactive) and the GI50 (M19-MEL) was > 100 µM (inactive). For the same compound, the GI50 (786-0) was > 100 µM (inactive), the GI50 (UO-31) was > 100 µM (inactive) and the GI50 (HCC 2998) was > 100 µM (inactive). The GI50 (SNB-19) was > 100 µM (inactive), the GI50 (OVCAR-5) was > 100 µM (inactive) and the GI50 (DMS-273) was > 100 µM (inactive). The GI50 (SK-MEL-5) was > 100 µM (inactive), the GI50 (A498) was > 100 µM (inactive) and the GI50 (SK-MEL-28) was > 100 µM (inactive). The GI50 (CCRF-CEM) was > 100 µM (inactive), the GI50 (SW-620) was > 100 µM (inactive) and the GI50 (DMS-114) was > 100 µM (inactive). The GI50 (COLO 205) was > 100 µM (inactive), the GI50 (SF-539) was > 100 µM (inactive) and the GI50 (KM12) was > 100 µM (inactive). The GI50 (SK-MEL-2) was > 100 µM (inactive), the GI50 (RXF 393) was > 100 µM (inactive) and the GI50 (SN12C) was > 100 µM (inactive). For the same compound, the GI50 (LXFL 529) was > 100 µM (inactive), the GI50 (TK-10) was > 100 µM (inactive) and the GI50 (HCT-15) was greater than 100 µM. For the same compound, the GI50 (HCT-116) was > 100 µM (inactive), the GI50 (OVCAR-3) was > 100 µM (inactive) and the GI50 (EKVX) was > 100 µM (inactive). The GI50 (SNB-75) was > 100 µM (inactive), the GI50 (NCI-H460) was > 100 µM (inactive) and the GI50 (M14) was > 100 µM (inactive). For the same compound, the GI50 (UACC-257) was > 100 µM (inactive), the GI50 (U-251) was > 100 µM (inactive) and the GI50 (K562) was > 100 µM (inactive). The GI50 (SF-268) was > 100 µM (inactive).
